Test results from US8389539B2, “Azacyclic derivatives” (Hoffman-La Roche Inc., priority 2009, dated 2013).

Target: T1, human HSL (Homo sapiens, UniProt Q05469)
T1 construct: overlapping PCR to generate a full length human HSL ORF with a 3′-His6 tag; His6 (C); made in house; host or cells: High 5 insect cells (baculovirus, pFast-BAC)
T1 sequence (Q05469 1-1076): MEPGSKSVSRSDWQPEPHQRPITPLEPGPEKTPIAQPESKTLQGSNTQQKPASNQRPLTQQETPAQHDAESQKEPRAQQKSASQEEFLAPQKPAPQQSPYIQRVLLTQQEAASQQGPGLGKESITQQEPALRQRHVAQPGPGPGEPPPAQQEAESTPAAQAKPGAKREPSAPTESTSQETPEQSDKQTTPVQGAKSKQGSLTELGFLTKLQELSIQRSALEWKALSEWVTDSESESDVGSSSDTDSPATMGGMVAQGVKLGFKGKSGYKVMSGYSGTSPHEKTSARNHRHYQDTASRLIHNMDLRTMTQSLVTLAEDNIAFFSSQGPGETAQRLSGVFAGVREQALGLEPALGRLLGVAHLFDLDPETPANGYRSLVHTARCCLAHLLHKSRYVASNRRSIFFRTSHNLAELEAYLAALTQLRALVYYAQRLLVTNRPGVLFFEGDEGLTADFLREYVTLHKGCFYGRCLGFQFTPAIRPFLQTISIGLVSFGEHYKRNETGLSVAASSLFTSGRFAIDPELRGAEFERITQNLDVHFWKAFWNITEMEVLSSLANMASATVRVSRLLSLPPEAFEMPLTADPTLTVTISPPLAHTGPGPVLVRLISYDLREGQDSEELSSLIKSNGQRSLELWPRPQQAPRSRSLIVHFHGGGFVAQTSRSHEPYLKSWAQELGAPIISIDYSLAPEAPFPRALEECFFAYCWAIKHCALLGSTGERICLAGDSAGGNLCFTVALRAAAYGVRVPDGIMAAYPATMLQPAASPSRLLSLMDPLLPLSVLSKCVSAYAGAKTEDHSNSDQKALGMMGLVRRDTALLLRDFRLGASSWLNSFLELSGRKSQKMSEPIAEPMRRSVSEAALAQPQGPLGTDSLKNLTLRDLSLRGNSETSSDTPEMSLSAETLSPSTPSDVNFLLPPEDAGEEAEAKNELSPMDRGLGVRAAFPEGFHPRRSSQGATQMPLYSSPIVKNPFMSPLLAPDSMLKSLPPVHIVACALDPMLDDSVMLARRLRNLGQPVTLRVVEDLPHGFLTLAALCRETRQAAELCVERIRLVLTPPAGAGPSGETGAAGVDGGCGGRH
Assay: Human Hormone-Sensitive Lipase (HSL) enzyme inhibition assay (colorimetric, DMPT substrate)
Assay type: biochemical
Conditions: human full length HSL-His6, 2,3-dimercapto-1-propanol tributyrate substrate, 37° C. 20 minutes, absorbance at 405 nm; read-out: HSL hum IC50
Description: 1) Cloning: cDNA was prepared from commercial human brain polyA+ RNA and used as a template in overlapping PCR to generate a full length human HSL ORF with a 3′-His6 tag. This full length insert was cloned into the pFast-BAC vector and the DNA-sequence of several single clones was verified. DNA from a correct full length clone with the 3′His6 tag was used to transform the E. coli strain DH10BAC. Resulting bacmid DNA was used to generate a titered baculovirus stock for protein generation.
Cells were thawed. […] was done at 3×30 sec., Lubrol PX was added to 0.2% final concentration followed by stirring for 15 min. at 4° C. and centrifugation at 25 k×g, 60 min., 4° C. […] Supernatant was removed, the resin washed in the centrifuge vessel using 5 volumes of Base Buffer containing 0.2% Lubrol PX. Centrifugation was done again, then the supernatant discarded. The resin was poured onto a 0.8 μm membrane in a disposable filter unit (Nalge 450-0080), and washed with 5 volumes of Base Buffer containing 0.2% Lubrol PX. It was then washed with 30 volumes of Base Buffer containing 60 mM imidazole pH 7.5 at 4° C. The protein was eluated with 5 volumes of 25 mM Tris-Cl, 300 mM NaCl, 200 mM imidazole, 10 mM 2-mercaptoethanol, pH 7.5 at 4° C. by tumbling resin with buffer end-over-end, 30 min., 4° C. The resin was captured on a 0.2 μm membrane disposable filter unit (Millipore SCGP U02 RE) and the eluate collected in the reservoir. The eluate was concentrated using a 30 k MWCO centrifugal filter device (Sartorius Vivascience Vivacell 100, VC1022), to 20 ml. It was then dialyzed overnight at 4° C., two times against 2 L of 10% glycerol, 25 mM Tris-Cl, 300 mM NaCl, 0.2 mM EDTA, 0.2 mM DTT, pH 7.5 at 4° C. The protein was filtered using a 0.22 μm disposable filter unit (Millipore SCGP00525). The protein concentration was calculated from absorbance at 280 nm, using 280=0.67 cm-1 mg-1. […] The protein was stored at −80° C.
Human Hormone-Sensitive Lipase (HSL) Enzyme Inhibition Assay:
HSL enzyme activity was measured by a colorimetric assay using 2,3-dimercapto-1-propanol tributyrate (Aldrich, St. Louis, Mo.) as a substrate. Typically, 1.5 mM 2,3-dimercapto-1-propanol tributyrate (DMPT) in 100 mM MOPS, pH 7.2, 0.2 mg/ml fatty acid-free BSA was prepared by sonication at 4° C. to homogenous suspension. Test compounds (2 mM stock in DMSO) were diluted 3 fold in series in DMSO. Compound solutions were diluted 24 fold in 1.5 mM DMPT containing solution and 18 ul per well was added to 384-well microplates (Corning Costar). Twelve microliters per well of human HSL (15 ug/ml) was added and the reaction mixture was incubated at 37° C. for 20 minutes. Six microliters of 12 mM dithio-bis-(2-nitrobenzoic acid) (DTNB) in DMSO plus 1.2% SDS and 0.6% Triton X-100 were added and the mixture was incubated at room temperature for 15 minutes. Product production was monitored by reading absorbance at 405 nm on an Envision Reader (PerkinElmer Life and Analytical Sciences, Shelton, Conn.).

Row | SMILES | IC50
1 | C[C@H](Oc1ccc(N2CCC3(CCN(CC(O)c4c(F)cccc4Cl)CC3)C2=O)cn1)C(F)(F)F (stereo partly drawn) [Example 55, 8-[2-(2-Chloro-6-fluoro-phenyl)-2-hydroxy-ethyl]-2-[6-((S)-2,2,2-trifluoro-1-methyl-ethoxy)-pyridin-3-yl]-2,8-diaza-spiro[4.5]decan-1-one] | 38 nM
2 | CN(Cc1ccccc1)C(=O)CN1CCC2(CC1)CCN(c1ccc(C3CC3)cc1)C2=O [Example 15, N-Benzyl-2-[2-(4-cyclopropyl-phenyl)-1-oxo-2,8-diaza-spiro[4.5]dec-8-yl]-N-methyl-acetamide] | 80 nM
3 | CCCCNC(=O)C(C)N1CCC2(CCN(c3ccc(C4CC4)cc3)C2=O)CC1 (stereo not shown) [Example 27, N-Butyl-2-[2-(4-cyclopropyl-phenyl)-1-oxo-2,8-diaza-spiro[4.5]dec-8-yl]-propionamide] | 30 nM
4 | CCCCNC(=O)CN1CCC2(CC1)CCN(c1ccc(C3CC3)cc1)C2=O [Example 11, N-Butyl-2-[2-(4-cyclopropyl-phenyl)-1-oxo-2,8-diaza-spiro[4.5]dec-8-yl]-acetamide] | 90 nM
5 | CCCCNC(=O)C(CCCC)N1CCC2(CCN(c3ccc(C4CC4)cc3)C2=O)CC1 (stereo not shown) [Example 30, 2-[2-(4-Cyclopropyl-phenyl)-1-oxo-2,8-diaza-spiro[4.5]dec-8-yl]-hexanoic acid butylamide] | 20 nM
6 | O=C1N(c2ccc(C3CC3)cc2)CCC12CCN(C[C@H](O)c1cccc(Cl)c1)CC2 [Example 36, 8-[(R)-2-(3-Chloro-phenyl)-2-hydroxy-ethyl]-2-(4-cyclopropyl-phenyl)-2,8-diaza-spiro[4.5]decan-1-one] | 30 nM
7 | CCNC(=O)CN1CCC2(CC1)CCN(c1ccc(C3CC3)cc1)C2=O [Example 9, 2-[2-(4-Cyclopropyl-phenyl)-1-oxo-2,8-diaza-spiro[4.5]dec-8-yl]-N-ethyl-acetamide] | 610 nM
8 | O=C1N(c2ccc(C3CC3)cc2)CCC12CCN(CC(O)c1ccc(Cl)cc1)CC2 (stereo not shown) [Example 24, 8-[2-(4-Chloro-phenyl)-2-hydroxy-ethyl]-2-(4-cyclopropyl-phenyl)-2,8-diaza-spiro[4.5]decan-1-one] | 80 nM
9 | CN(C(=O)CCN1CCC2(CC1)CCN(c1ccc(C3CC3)cc1)C2=O)C1CCCCC1 [Example 22, N-Cyclohexyl-3-[2-(4-cyclopropyl-phenyl)-1-oxo-2,8-diaza-spiro[4.5]dec-8-yl]-N-methyl-propionamide] | 320 nM
10 | CC(c1ccccc1)N1CCC2(CCN(c3ccc(C4CC4)cc3)C2=O)CC1 (stereo not shown) [Example 4, 2-(4-Cyclopropyl-phenyl)-8-(1-phenyl-ethyl)-2,8-diaza-spiro[4.5]decan-1-one] | 30 nM
11 | CC(c1cccc(C(F)(F)F)c1)N1CCC2(CCN(c3ccc(C4CC4)cc3)C2=O)CC1 (stereo not shown) [Example 5, 2-(4-Cyclopropyl-phenyl)-8-[1-(3-trifluoromethyl-phenyl)-ethyl]-2,8-diaza-spiro[4.5]decan-1-one] | 170 nM
12 | CN(Cc1ccccc1)C(=O)CCN1CCC2(CC1)CCN(c1ccc(C3CC3)cc1)C2=O [Example 21, N-Benzyl-3-[2-(4-cyclopropyl-phenyl)-1-oxo-2,8-diaza-spiro[4.5]dec-8-yl]-N-methyl-propionamide] | 90 nM
13 | O=C1N(c2ccc(OC(F)(F)F)cc2)CCC12CCN(Cc1ccccc1)CC2 [Example 8, 8-Benzyl-2-(4-trifluoromethoxy-phenyl)-2,8-diaza-spiro[4.5]decan-1-one] | 40 nM
14 | O=C1N(c2ccc(C3CC3)cc2)CCC12CCN(CC(O)c1ccc(Cl)cc1Cl)CC2 (stereo not shown) [Example 38, 2-(4-Cyclopropyl-phenyl)-8-[2-(2,4-dichloro-phenyl)-2-hydroxy-ethyl]-2,8-diaza-spiro[4.5]decan-1-one] | 30 nM
15 | O=C1N(c2ccc(CC(F)(F)F)cc2)CCC12CCN(CC(O)c1c(F)cccc1Cl)CC2 (stereo not shown) [Example 50, 8-[2-(2-Chloro-6-fluoro-phenyl)-2-hydroxy-ethyl]-2-[4-(2,2,2-trifluoro-ethyl)-phenyl]-2,8-diaza-spiro[4.5]decan-1-one] | 18 nM
16 | COc1ccc(C(C(O)C(N)=O)N2CCC3(CCN(c4ccc(C5CC5)cc4)C3=O)CC2)cc1 (stereo not shown) [Example 40, 3-[2-(4-Cyclopropyl-phenyl)-1-oxo-2,8-diaza-spiro[4.5]dec-8-yl]-2-hydroxy-3-(4-methoxy-phenyl)-propionamide] | 165 nM
17 | O=C1N(c2ccc(C3CC3)cc2)CCC12CCN(C[C@@H](O)c1ccccc1)CC2 [Example 32, 2-(4-Cyclopropyl-phenyl)-8-((S)-2-hydroxy-2-phenyl-ethyl)-2,8-diaza-spiro[4.5]decan-1-one] | 90 nM
18 | C[C@H](Oc1ccc(N2CCC3(CCN(CC(O)c4ccc(Cl)cc4Cl)CC3)C2=O)cn1)C(F)(F)F (stereo partly drawn) [Example 53, 8-[2-(2,4-Dichloro-phenyl)-2-hydroxy-ethyl]-2-[6-((S)-2,2,2-trifluoro-1-methyl-ethoxy)-pyridin-3-yl]-2,8-diaza-spiro[4.5]decan-1-one] | 43 nM
19 | CCCCNC(=O)[C@H](CCCC)N1CCC2(CCN(c3ccc(C4CC4)cc3)C2=O)CC1 [Example 41, (S)-2-[2-(4-Cyclopropyl-phenyl)-1-oxo-2,8-diaza-spiro[4.5]dec-8-yl]-hexanoic acid butylamide] | 47 nM
20 | CCCCNC(=O)CCN1CCC2(CC1)CCN(c1ccc(C3CC3)cc1)C2=O [Example 18, N-Butyl-3-[2-(4-cyclopropyl-phenyl)-1-oxo-2,8-diaza-spiro[4.5]dec-8-yl]-propionamide] | 460 nM
21 | C[C@H](Oc1ccc(N2CCC3(CCN(CC(O)c4ccc(Cl)cc4Cl)CC3)C2=O)cc1)C(F)(F)F (stereo partly drawn) [Example 52, 8-[2-(2,4-Dichloro-phenyl)-2-hydroxy-ethyl]-2-[4-((S)-2,2,2-trifluoro-1-methyl-ethoxy)-phenyl]-2,8-diaza-spiro[4.5]decan-1-one] | 20 nM
22 | O=C(CCN1CCC2(CC1)CCN(c1ccc(C3CC3)cc1)C2=O)NCc1ccc(C(F)(F)F)cc1 [Example 19, 3-[2-(4-Cyclopropyl-phenyl)-1-oxo-2,8-diaza-spiro[4.5]dec-8-yl]-N-(4-trifluoromethyl-benzyl)-propionamide] | 30 nM
